According to patent US6852760B1, “Compositions and methods for treatment for glucose metabolism disorders” (Akesis Pharmaceuticals, Inc., priority 1998, dated 2005):
Read-outs that look alike come from different tables or passages of the source.

How the values were obtained:
[1] = person, Type 2 diabetes; metformin 1000 mg b.i.d.; combination after 3 months
[2] = person with Type 2 diabetes; metformin 500 mg b.i.d.; combination after 2 months
[3] = cited from earlier work
[4] = after 14 weeks, cited from earlier work
[5] = hypertensive obese non-diabetic women; cited from earlier work
[6] = NIDDM patients; cited from earlier work
[7] = dietary; STZ-induced diabetic rats; cited from earlier work
Na/K ATPase = conditions: catalytic cycle of Na/K ATPase; cited from earlier work
[8] = treatment periods of up to one year; cited from earlier work
[9] = cited from earlier work; remark: listed apart in the source
[10] = rat, in vivo, po; cited from earlier work

## CN(C)C(=N)NC(=N)N [Metformin alone, N,N-dimethylimidodicarbonimidicdiamide]
[1]
  HbA1c level: 8.3
[2]
  Cholesterol: 229
  Estimated Blood Sugar: 200 mg/dL
  Fasting Blood Sugar: 185 mg/dL
  HDL: 52
  HbA1c level: 9.7
  LDL: 133
  Triglycerides: 220
[3]; after 29 weeks, alone or in combination with sulfonylurea, improved from 8.6%
  HbA1c level after metformin therapy: 7.1%
[3]; moderately obese Type 2 diabetics
  effect on serum lipids: lowering mean fasting serum triglycerides, total cholesterol, and LDL cholesterol levels
[4]; 500 mg daily
  reduction of HbA1c: 0.9%
[4]; 2000 mg daily
  reduction of HbA1c: 2.0%
[5]
  blood pressure, plasma insulin, fibrinogen: decreased blood pressure, fasting and glucose-stimulated plasma insulin fibrinogen

## CC(=O)N[C@@H](CS)C(=O)O [NAC, N-acetylcysteine]
[6]
  reduction of apolipoprotein A1: over 20%
[7]
  development of peripheral neuropathy: appeared to inhibit the development of peripheral neuropathy

## [O]=[V]([O-])([O-])[O-] [vanadate]
Na/K ATPase
  concentration inhibiting formation of EP: less than 1 micromolar

## O=S(=O)([O-])[O-].[O]=[V+2] [vanadyl sulfate]
[8]
  apparent toxicity: does not appear not to be associated with any apparent toxicity

## Cc1c(C)c2c(c(C)c1O)CC[C@@](C)(CCC[C@H](C)CCC[C@H](C)CCCC(C)C)O2 [vitamin E, free 2R,4′R,8′R-alpha-tocopherol]
[9]; 400 or 800 I.U. daily, patients with coronary artery disease
  non-fatal myocardial infarction: dramatic and significant reduction of non-fatal myocardial infarction
[9]; 400 or 800 I.U.
  side effects versus placebo: no difference between the alpha-tocopherol treatment (400 or 800 I.U.) or placebo groups for side effects

## chromium picolinate
[10]
  rate of absorption relative to chromium trichloride: about four times greater than chromium trichloride
